Data on six compounds can be found in US20250339520A1, “COMPOSITIONS AND METHODS FOR USE IN KRAS-TARGETED THERAPIES FOR THE TREATMENT OF CANCER” (RUTGERS, THE STATE UNIVERSITY OF NEW JERSEY, priority 2024, published 2025).

Series [1] deals with KPC PDAC cells. The series can be described thus: Orthotopically transplanted KPC PDAC model with pancreatitis induction. The class given is in vivo, mouse. On the procedure: (§1) For allograft or xenograft tumor models, human or mouse PDAC cells were transplanted orthotopically or subcutaneously into recipient C57BL/6 or nude mice at a concentration of 500,000 cells per injection, as specified in the figures. The cells were resuspended in Opti-MEM and combined with growth factor-reduced Matrigel (Corning) at a 1:1 ratio.
(§2) For bioluminescence imaging, each mouse received a 100 L injection of D-Luciferin (15 mg/mL, i.p., Perkin Elmer). After a 10-minute interval, mice were imaged using the IVIS Spectrum Imaging System, and images were acquired and analyzed using Living Image 4.3 software.

Another series concerns iKPC mice. Put plainly: Pancreatitis-induced spontaneous tumor relapse in iKPC mice. Format: in vivo, mouse. The note with it: CAE 100 μg/kg after dox withdrawal (KRAS* off); less than or around a year after treatment; control mice remained tumor-free. On the procedure:
The iKPC and KPC PDAC mouse models were established and described previously^7,19. They were bred in pure C57BL/6 background. Doxycycline (dox) water (2 mg/mL, ad libitum) was administrated at 4-6 weeks of mouse age to activate transgenic KRAS^G12D expression in iKPC mice. The C57BL/6 mice and nude mice of both sexes were purchased from the Jackson Laboratory and employed to ensure matching sexes of the cell lines.
For the induction of spontaneous tumor relapse in iKPC mice, the withdrawal of dox water was performed to cease KRAS* expression when the tumor diameter reached approximately 1 cm.

For another series, the system named is AsPC-1. Put plainly: Cancer spheroid formation under KRASi, SMAD4-deficient cells. Format: cell-based, human. The note with it: for Response of spheroid formation to TGFβ1 or TGFβRi: SMAD4-deficient, under G12Di MRTX1133, TGFβ 0.5 ng/ml, SB505124 1 μM.
Series [2] deals with KRAS*-independent escaper tumor cell lines from iKPC mice. Put plainly: KRAS*-independent escaper spheroid growth. Format: cell-based, mouse. The note with it: SB505124 3 μM; hybrid or QM-like phenotype. On the procedure: (§3) Human cell lines MIA PaCa-2 and Panc 04.03 were purchased from the American Type Culture Collection (ATCC) and cultured in DMEM supplemented with 10% FBS and RPMI supplemented with 15% FBS and 20 Units/ml human recombinant insulin, respectively. Mouse PDAC cells were isolated from spontaneous tumors developed in iKPC or KPC mice. KPC cell lines were sustained in RPMI (Gibco) with 10% FBS (Gibco), while iKPC cell lines were cultured in RPMI with 10% Tet-approved FBS (Gibco) and doxycycline (VWR, […]). Escaper tumor cell lines were maintained in RPMI with 10% Tet-approved FBS (Gibco). For cancer spheroid culture, cells were mixed with 50 L growth factor-reduced Matrigel (Corning) and plated in 24-well low-attachment cell culture plates (Nunc). Medium was added on top of the solidified Matrigel. We monitored both spheroid size and number for spheroid growth assays. For counting spheroid numbers, we used a cut-off of 100 m in diameter or specified, depending on the time and cell type. For measuring spheroid size, ImageJ was used. Monthly mycoplasma detection (Lonza) was performed to ensure the absence of contamination.

The subject of series [3] is KPC [1860], Mia PaCa-2, and Panc 04.03 PDAC cells. Put plainly: Cancer spheroid formation under KRASi. The class given is cell-based, mouse and human. On the procedure:
as §3

Series [4] deals with iKPC PDAC cells. The series can be described thus: Cancer spheroid formation, TGFβ-driven KRAS* bypass. The class given is cell-based, mouse. On the procedure:
as §3

For series [5], the system named is iKPC spheroids. The series can be described thus: Western blot of S100A4, NFAT5 and EMT TFs in iKPC cells/spheroids. The class given is cell-based, mouse. The note with it: TGFβ. On the procedure:
(§4) Antibody information can be found in Table 2. Western blot analysis, IP, co-IP, and IHC staining were conducted following standard protocols. Human TMA slides were purchased from Biomax. Cell fractionation and Masson's Trichrome Staining were carried out using commercial kits, adhering to manufacturers' protocols. MS analysis of proteins pulled down by endogenous SMAD2, SMAD3, SMAD4, NFAT5, and IgG was performed by the Proteomics Core Facility at Rutgers New Jersey Medical School. Specifically, IP samples were subjected to SDS-PAGE separation. Each sample's gel lane was excised for in-gel trypsin digestion, and the resulting peptides were analyzed using LC-MS/MS on an Orbitrap Fusion Lumos Tribrid mass spectrometer coupled with the Ultimate 3000 nano-LC system (Thermo Scientific). MS/MS spectra were searched against the UniProt mouse database (55,336 sequences, downloaded 8/30/2021) using the Sequest search engine through the Proteome Discoverer platform (version 2.4) with a false discovery rate less than 1% for both proteins and peptides. Protein abundance ratios were determined using the Label-Free Quantitation (LFQ) method.

Another series relates to S100a4 promoter. Put plainly: Luciferase reporter assay under the S100a4 promoter. Format: cell-based, mouse. Conditions: KRAS*-depleted iKPC PDAC cells. As for the experimental part:
Mouse S100a4 promoter was cloned into pGL4.12[iluc2CP] vector (Promega). Renilla luciferase vector (Promega) was used as the internal control. pGL4.12 vector and Renilla luciferase vector were co-transfected into iKPC PDAC cells using Lipofectamine 2000 (Invitrogen). After 24 hours, the medium was replaced, and cells were subjected to various treatments for an additional 24 hours. Subsequently, cells were collected for luciferase reporter assay using the Dual-Luciferase Reporter Assay Kit (Promega) according to the manufacturer's instructions. The firefly luciferase signal was normalized to Renilla luciferase prior to comparison among different treatment groups.
A general note: A reporter such as luciferase makes a cellular process visible.

Series [6] concerns iKPC PDAC cells. Put plainly: Gene expression changes in iKPC cells post TGFβ treatment. Format: cell-based, mouse. On the procedure:
(§5) RNA extraction from 2-D or 3-D cultured cell samples was conducted using the RNA Extraction Kit from Qiagen. Matrigel-based 3-D cells were isolated using Cell Recovery Solution from Corning. RNA concentration was assessed using NanoDrop 2000. The RNA samples were either sent for RNA-seq analysis to the Genomic Center at Rutgers or Genewiz (Azenta), or reverse transcribed for qRT-PCR analysis. The preparation of cDNA utilized 5× All-In-One RT MasterMix from Applied Biological Materials, and the PCR reactions were prepared with SYBR Green PCR Master Mix from Applied Biosystems or Bio-Rad. qRT-PCR was executed on the CFX Opus 96 (Bio-Rad), with statistical analysis conducted using GraphPad Prism. For mRNA sequencing, the parameters were NGS-75 nt Paired End, utilizing the Illumina Next Generation Sequencing instrument.

In a further series the test system is MIA PaCa-2. Put plainly: MIA PaCa-2 orthotopic xenograft model. Format: in vivo.
Source text: as §1

In series [7] the test system is KPC PDAC cells. The series can be described thus: KPC transplanted (allograft) model, KRN2 and MRTX1133. Format: in vivo. On the procedure:
as §1, §2

Series [8] deals with KRAS*-independent escaper tumor cells E725. The series can be described thus: Escaper tumor growth, E725 cells subcutaneous in nude mice. The note with it: KRN2 3 mg/kg QD vs vehicle; day 28. The class given is in vivo, mouse.
Source text: as §1

In another series the test system is NFAT5. Put plainly: Western blot of NFAT5 expression under KRN2. The class given is cell-based. The note with it: PDAC cells, dose-dependent western blot. As for the experimental part:
as §4

Series [9] has as its system iKPC spheroids. Put plainly: RNA-seq / GSEA in TGFβ-treated, KRAS*-depleted iKPC spheroids. The class given is cell-based, mouse. The note with it: inhibition of NFAT5 by KRN2. As for the experimental part: as §5
GSEA was performed using GSEA software (4.3.2).

As to caerulein, the “Tumor growth, CAE vs vehicle control” value in the series on KPC PDAC cells [1] (CAE 100 μg/kg, C57BL/6 mice, BLI, tumor weight, tumor volume) is on record as “promotes KPC PDAC tumor growth”. Also, the “Tumor morphology (H&E)” value in the series on KPC PDAC cells [1] (CAE;G12Di-treated tumors relative to vehicle;G12Di controls) was “lost the ductal-like phenotype and were more undifferentiated”. For the same compound, the “Tumor progression, CAE;G12Di vs vehicle;G12Di” value in the series on KPC PDAC cells [1] (independent study, MRTX1133 10 mg/kg BID, CAE 100 μg/kg) was “significantly faster tumor progression”. Moreover, the “SMAD3 phosphorylation and EMT transcription factors in collected tumors (western blot)” value with KPC PDAC cells [1] (tumors under MRTX1133) was “induced SMAD3 phosphorylation and the upregulation of EMT transcription factors (TFs) such as SNAI2, ZEB1, and ZEB2”. In addition, in the series on iKPC mice, the “CAE-treated mice that developed escaper tumors” value was “at least 36%”.

Consider `Cc1cccc(-c2[nH]c(C(C)(C)C)nc2-c2ccc3c(c2)OCO3)n1` [SB505124], for which, in the series on AsPC-1, the “Response of spheroid formation to TGFβ1 or TGFβRi” value is on record as “did not exhibit a response”. Also, the “Sensitivity of escaper spheroids to TGFβRi” value in series [2] is listed as “hypersensitivity”. The “Cancer spheroid formation, TGFβRi combined with KRASi” value in [3] (SB505124 3 μM with MRTX1133 (KPC, Panc 04.03) or ARS-1620 (MIA PaCa-2)) is recorded as “eradication of cancer spheroids”.

With “TGFβ1: recombinant human and mouse TGFβ1 (Peprotech)”, in the series on iKPC PDAC cells [4] (TGFβ1 treatment, KRAS* off), the “KRAS* bypass in spheroid assays” value is listed as “efficiently promoted several iKPC PDAC cell lines to bypass KRAS*”. In the series on iKPC PDAC cells [4] (TGFβ1 treatment, cell lines with higher Cdkn2a and Cdkn2b expression), the “KRAS* bypass in spheroid assays, iKPC cell lines 251, 276” value is reported as “unable to bypass KRAS*”. Further, in the series with iKPC spheroids [5], the NFAT5 protein level entry is recorded as “upregulates NFAT5”. Besides, the S100A4 protein level result in the series with iKPC spheroids [5] (cancer spheroids) is “upregulation of S100A4”. Besides, the “Response of spheroid formation to TGFβ1 or TGFβRi” value in the series with AsPC-1 is listed as “did not exhibit a response”. Besides, the “Formation of cancer spheroids resistant to KRASi” value in series [3] (TGFβ 0.5 ng/ml with MRTX1133 or ARS-1620, cells with intact TGFβ pathway) is listed as “actively promoted the formation of cancer spheroids resistant to KRASi”. Further, the “S100a4 promoter luciferase activity under TGFβ” value in the series with S100a4 promoter is “activated S100a expression”. In the series with iKPC PDAC cells [6] (TGFβ treatment, KRAS*-depleted iKPC PDAC cells), the Ccl2 expression elevation entry was “more than 700 fold”. For the same compound, the S100a4 expression result in the series with iKPC PDAC cells [6] (TGFβ, KRAS*-depleted iKPC spheroids) is on record as “upregulated”.

For `COc1ccc2c(Cc3ccccc3F)c3[n+](cc2c1OC)CCc1cc2c(cc1-3)OCO2.[Cl-]` [KRN2], in the series with iKPC PDAC cells [4] (KRN2 1 μM, TGFβ 0.5 ng/ml, three iKPC cell lines), the “TGFβ-driven KRAS* bypass (spheroid formation)” value is given as “impairment of TGFβ-driven KRAS* bypass”. Besides, the “Chronic pancreatitis-induced KRASi resistance” value in the series with KPC PDAC cells [1] (MRTX1133 10 mg/kg BID + CAE 100 μg/kg + KRN2 3 mg/kg QD, KPC 1860, day 21) is recorded as “blockage of chronic pancreatitis-induced KRASi resistance”. In addition, the “Human xenograft tumor growth” value with MIA PaCa-2 (KRN2 3 mg/kg QD with G12Ci MRTX849 100 mg/kg QD, day 28) is “reduction of human xenograft tumor growth cooperatively with KRASi”. In the series on MIA PaCa-2 (xenograft model, during treatment), the “Systemic toxicity (mouse body weight)” value is listed as “minimal systemic toxicities”. In the series on AsPC-1 (KRN2 0.3 μM + MRTX1133 0.3 μM), the “KRASi persistent cancer spheroid formation, SMAD4-deficient cells” value is “excluding SMAD4-deficient cancer spheroid formation”. In the series on KPC PDAC cells [7] (KRN2 3 mg/kg QD in combination with MRTX1133 10 mg/kg QD), the “Mouse allograft tumor growth” value was “inhibition of mouse allograft tumor growth in combination with KRASi”. Also, in the series on KPC PDAC cells [7] (KRN2 monotherapy 3 mg/kg QD, immune-competent mice), the Mouse survival result is on record as “prolonged mouse survival”. Moreover, in the series with KPC PDAC cells [7] (KRN2 vs vehicle control), the “Tumor differentiation (H&E)” value is listed as “induced tumor differentiation”. Moreover, the “Systemic toxicity (mouse body weight)” value in the series with KPC PDAC cells [7] (allograft model, during treatment) is given as “minimal systemic toxicities”. Also, the “Escaper tumor growth in vivo” value in series [8] is reported as “restriction of escaper tumor growth in vivo”. The “KRASi persistent cancer spheroid formation” value in series [3] (KRN2 1 μM + MRTX1133 0.03 μM (KPC), KRN2 0.3 μM + ARS-1620 5 μM (MIA PaCa-2)) was “attenuation of KRASi persistent cancer spheroid formation”. In addition, in the series with NFAT5, the “Concentration at which Nfat5 expression is suppressed” value is recorded as “higher than 0.3 μM”. Moreover, in the series on iKPC spheroids [9], the “Gene sets upregulated (GSEA)” value was “upregulating genes associated with fatty acid metabolism and mTORC1 signaling”; the “Gene signatures suppressed (GSEA)” value is “suppressed EMT and NFxB gene signatures”.

Take `C#Cc1c(F)ccc2cc(O)cc(-c3ncc4c(N5CC6CCC(C5)N6)nc(OC[C@@]56CCCN5C[C@H](F)C6)nc4c3F)c12` [MRTX1133]: the “Tumor growth under G12Di with pancreatitis induction” value in the series on KPC PDAC cells [1] (MRTX1133 10 mg/kg BID + CAE 100 μg/kg) is recorded as “leads to resistance”. In addition, the “Tumor growth, G12Di vs vehicle” value with KPC PDAC cells [1] (MRTX1133 10 mg/kg, BID) was “significantly reduces tumor growth”.

On to “recombinant S100A4 protein: recombinant mouse S100A4 (R&D) added to the culture media”, for which the “Rescue of TGFβ-induced, KRAS*-independent cancer spheroid growth” value with iKPC PDAC cells [4] (added to culture media after NFAT5 inhibition (KRN2 1 μM) or knockdown of Nfat5 or S100a4) is “rescued TGFβ-induced, KRAS*-independent cancer spheroid growth”.
